Patent publication US20040224922A1, “Use of charged dextran as a mucoactive agent and methods and pharmaceutical compositions relating thereto” (priority 1999, published 2004)

Experiments:
[1] = Viscoelasticity of cystic fibrosis sputum in vitro by magnetic rheometry; design: species or system human; conditions: final concentration 8 mg/ml in CF sputum
From the text: FIG. 5 is a bar graph illustrating the effect of heparin and dextran sulfate on […] of sputum from 7 cystic fibrosis human patients as determined by magnetic rheometry, expressed as the average log G* over 1-100 rad/s after treatment with saline, heparin (MW 6000), Dextran Sulfate (MW 5000, about 17% sulphur by weight), heparin (dimer, highly (fully) sulfated, H-9267: C12H13NO19S3Na4), or heparin (dimer, low sulfate, partially de-sulfated H-9142, C12H18NO13SNa) to a final concentration of about 8 mg/ml (or […]) of sputum. […] The effect was similar to heparin, M.W. 6000.
Mucus Viscoelasticity Measurements: The magnetic microrheometer technique was used to measure the viscosity and elasticity of the dog mucus samples [21]. A […] steel ball was positioned in a 5-10 mL sample of mucus, and the motion of this sphere under the influence of an oscillating electromagnetic field gradient was used to determine the rheological properties of the mucus. The image of the steel ball was projected via a microscope onto a pair of photocells, whose output was amplified and transmitted to an oscilloscope. […]
(§1) The parameters of mucus viscoelasticity determined were the rigidity index or mechanical impedance, i.e. G*, reported here on a log scale, expressing the average vector sum of “viscosity+elasticity” over the frequency range 1-100 rad/s, and tan d, the mechanical loss tangent, expressing the ratio of viscous to elastic deformation. These viscoelastic parameters can be used to predict mucus clearability by ciliary and cough mechanisms, based on the measured Theological properties and observations of clearance from model studies.
(a) In vitro Sputum from 7 cystic fibrosis human patients were measured with regards to viscoelasticity after treatment with saline, heparin (MW˜6000), dextran sulfate (MW˜5000), heparin (dimer, highly sulfated), or heparin (dimer, de-sulfated) in accordance with the protocols for measuring viscoelasticity described in Example 1. […]

healthy mongrel dogs [2] = assay: Tracheal transepithelial potential difference (PD) by agar bridge technique after aerosol; type: in vivo, dog
Description: (§2) Seven healthy mongrel dogs (6 male/1 female), weight 21-28 kg, with no respiratory tract bacterial infections, were studied. The dogs were anesthetized with sodium pentobarbital (ca 30 mg/kg i.v., supplemented as required) and intubated with a cuffed endotracheal tube. They were administered Ringer aerosol first, followed by 6.5 mg/ml dextran sulfate, 20 mg/ml dextran sulfate, and 65 mg/ml dextran sulfate by aerosol. Each aerosolization was of 30 minutes duration, with a rest period of 30 minutes before the beginning of the next aerosol delivery. The aerosols were generated and delivered by a Pari LC STAR nebulizer using an air flow rate of 8 l/min, which results in an output of 0.58 ml/min and particles of […] mass median diameter. The nebulizer was loaded in each case with 10 ml of solution. The amount of solution remaining in the nebulizer after 30 minutes was recorded. A T-tube connection was provided to the endotracheal tube during aerosol delivery to ensure a minimal deadspace for ventilation and adequate delivery of the aerosol. The dogs breathed spontaneously throughout the experiment.
(§3) Tracheal mucus velocity (TMV) and tracheal potential difference (PD) was measured, and mucus samples were collected for each concentration of delivered drug. TMV was measured twice for each dose, i.e. during aerosolization, between 15 and 25 minutes from the start of aerosol delivery (designated as period-1), and 10-20 minutes after completion of aerosolization (designated as period-2). PD was measured during the period 5 to 10 minutes following each aerosol. […]
Transepithelial Potential Difference (PD, -mV); PD was measured by using two flexible microelectrodes (agar bridges of PE 160 size) saturated with KCl connected to calomel half cells, one for reference and the other for testing. […] The PD value was recorded when a steady state, value was achieved and remained stable for a least 30 seconds. […]

healthy mongrel dogs [3] = assay: Tracheal mucociliary velocity (TMV) by charcoal particle displacement; type: in vivo, dog
Description: as §2, with “The dogs breathed spontaneously throughout the experiment.” left out
as §3
Tracheal Mucociliary Velocity (TMV, mm/min): TMV was determined by observing the rate of charcoal marker particle transport in the lower trachea. Under bronchoscopic visualization, ca, 5 mL of a charcoal suspension (Charac-50 diluted in Ringer's 1:10) was deposited on a lateral surface of the lower trachea 1-2 cm above the carina, and the rate of cephalad progression of the leading edge of the charcoal spot was monitored over the course of 10 minutes by gradually withdrawing the bronchoscope and recording its position relative to the endotracheal tube. […]

healthy mongrel dogs [4] = assay: Tracheal mucus viscoelasticity by magnetic microrheometry after aerosol; type: in vivo, dog
Description: as §2
(§4) Tracheal mucus velocity (TMV) and tracheal potential difference (PD) was measured, and mucus samples were collected for each concentration of delivered drug. TMV was measured twice for each dose, i.e. during aerosolization, between 15 and 25 minutes from the start of aerosol delivery (designated as period-1), and 10-20 minutes after completion of aerosolization (designated as period-2). PD was measured during the period 5 to 10 minutes following each aerosol. Mucus was collected twice for each aerosol, once immediately after 30 minutes of aerosolization and a second time after an additional 30 minutes of spontaneous breathing.
All samples of dog mucus collected from endotracheal tubes were placed in 1.5 ml Eppendorf tubes for measurement of viscoelasticity by magnetic rheometry. After initial rheological testing, the mucus samples were preserved at −80° C. for subsequent analysis of collection rate and solids content.
Mucus Viscoelasticity Measurements: The magnetic microrheometer technique was used to measure the viscosity and elasticity of the dog mucus samples [21]. A […] steel ball was positioned in a 5-10 mL sample of mucus, and the motion of this sphere under the influence of an oscillating electromagnetic field gradient was used to determine the rheological properties of the mucus. The image of the steel ball was projected via a microscope onto a pair of photocells, whose output was amplified and transmitted to an oscilloscope. By plotting the displacement of the ball against the magnetic driving force, the viscoelastic properties of the mucus were ascertained.
as §1
(b) In vivo Seven healthy dogs were anesthetized, intubated and treated via aerosol with heparin sodium (MW 5000-6000) or dextran sulfate (MW 5000) and mucus viscoelasticity, transepithelial potential difference (PD) and tracheal mucus velocity (TMV) were determined, in accordance with the protocols described in Example 1 above. Non-lactated Ringer's solution was used as control. […] These changes were accompanied by a nonsignificant, upward trend in TMV, to approximately 130% of control. However, changes might be even more pronounced in animals with initially rigid mucus.

healthy mongrel dogs [5] = assay: Mucus collection weight (MCW) by endotracheal tube method; type: in vivo, dog
Description: as §2, §4
Mucus Collection Weight (MCW, mg/30 min): Tracheal mucus was collected by the endotracheal tube (ETT) method, which involves the removal of mucus adherent to the ETT after extubation. Mucus collections were performed twice after each aerosol, once by immediately removing the ETT following aerosol inhalation, and the second 30 minute after inhalation, after re-installing a clean ETT The mucus samples, which had been frozen, were thawed and weighed by microbalance, to determine MCW, an index of flux, and indirectly of the rate of secretion.

healthy mongrel dogs [6] = assay: Solids content (% SC) of collected airway secretion; type: in vivo, dog
Description: as §2, §3
Solids content (wet:dry weight ratio): A drying apparatus and microbalance were used to calculate the dry weight and wet weight of the collected secretion, from which the percent solids content (% SC) was calculated. […] These dried samples were then reweighed, and % SC was calculated from ratio of dry to wet weight.

healthy mongrel dogs [7] = assay: Tolerability / toxic effects of aerosol inhalation in dogs; type: in vivo, dog
Description: Seven healthy mongrel dogs (6 male/1 female), weight 21-28 kg, with no respiratory tract bacterial infections, were studied. The dogs were anesthetized with sodium pentobarbital (ca 30 mg/kg i.v., supplemented as required) and intubated with a cuffed endotracheal tube. They were administered Ringer aerosol first, followed by 6.5 mg/ml dextran sulfate, 20 mg/ml dextran sulfate, and 65 mg/ml dextran sulfate by aerosol. Each aerosolization was of 30 minutes duration, with a rest period of 30 minutes before the beginning of the next aerosol delivery. The aerosols were generated and delivered by a Pari LC STAR nebulizer using an air flow rate of 8 l/min, which results in an output of 0.58 ml/min and particles of 2.0 mm mass median diameter. The nebulizer was loaded in each case with 10 ml of solution. The amount of solution remaining in the nebulizer after 30 minutes was recorded. A T-tube connection was provided to the endotracheal tube during aerosol delivery to ensure a minimal deadspace for ventilation and adequate delivery of the aerosol. The dogs breathed spontaneously throughout the experiment.

human subjects = conditions: oral, human subjects [34]; cited from earlier work

N[C@H]1C(O)O[C@H](CO)[C@@H](O[C@@H]2OC(C(=O)O)=C[C@H](O)[C@H]2OS(=O)(=O)O)[C@@H]1O (stereo partly shown) [de-sulfated heparin dimer]
viscoelasticity (average log G* over 1-100 rad/s) compared to saline control [1]: no significant improvement

O=C(O)C1=C[C@H](O)[C@@H](OS(=O)(=O)O)[C@H](O[C@H]2[C@H](O)[C@@H](NS(=O)(=O)O)C(O)O[C@@H]2COS(=O)(=O)O)O1 (stereo partly shown) [highly sulfated heparin dimer]
viscoelasticity (average log G* over 1-100 rad/s) compared to saline control [1]: significant decrease in viscoelasticity

Dextran sulfate, sodium salt [DexSO4]
mean increase in PD (maximal change) (healthy mongrel dogs [2]; 65 mg/ml aerosol, vs Ringer control): 9.86 mV
PD compared with Ringer control (healthy mongrel dogs [2]; after 30-minute aerosol at 6.5, 20 and 65 mg/ml, 7 dogs): increased significantly
TMV, % of baseline (healthy mongrel dogs [3]; 6.5 mg/ml aerosol (first dose), non-significant, p=0.066): 128 % of baseline
change in mucociliary velocity (TMV) (healthy mongrel dogs [3]; aerosol 6.5-65 mg/ml, during and after aerosolization): no significant change
mucus recoil parameter, tan d (healthy mongrel dogs [4]; aerosol 6.5-65 mg/ml): no significant changes
average log G* compared with respective Ringer control (healthy mongrel dogs [4]; aerosol at 6.5 and 65 mg/ml): significant decrease
decrease in G* expressed as a factor (healthy mongrel dogs [4]; during 65 mg/ml aerosol): 2.61
mean decrease in average log G* (1-100 rad/s) (healthy mongrel dogs [4]; during 65 mg/ml aerosol, vs Ringer, p=0.021): 0.42 log units
effective concentration range relative to neutral dextran (reduced viscoelastic modulus, predicted clearance) (healthy mongrel dogs [4]; in vivo, healthy dog mucus): half-log lower concentration range
mucus collection weight (MCW, mg/30 min) (healthy mongrel dogs [5]; 6.5 mg/ml-1 (collected immediately after aerosol), wet weight): 4.35 ± 0.67 mg
mucus collection weight (MCW, mg/30 min) (healthy mongrel dogs [5]; 20 mg/ml-1, wet weight): 4.47 ± 0.59 mg
mucus collection weight (MCW, mg/30 min) (healthy mongrel dogs [5]; 65 mg/ml-1, wet weight): 5.64 ± 1.14 mg
change in mucus collection weight with increasing concentration (healthy mongrel dogs [5]; 6.5-65 mg/ml aerosol): no change
solids content (% SC) of collected fluid (healthy mongrel dogs [6]; 65 mg/ml-1 (Ringer-1: 6.16±0.20%), p=0.042): 9.27±1.02%
solids content (% SC) of collected fluid (healthy mongrel dogs [6]; 65 mg/ml-2 (Ringer-2: 6.87±0.92%), p=0.009): 10.78%
effect on mucus % solids content (healthy mongrel dogs [6]; increasing concentrations 6.5, 20, 65 mg/ml): significant increase
bronchial mucosal appearance (healthy mongrel dogs [7]; aerosol 6.5, 20, 65 mg/ml): remained normal
cough or other side effects during inhalation (healthy mongrel dogs [7]; aerosol 6.5, 20, 65 mg/ml, 30 min each, all seven dogs): without significant cough or other side effects
toxic effects (healthy mongrel dogs [7]; present study, aerosol in dogs): no toxic effects

dextran sulfate [dextran sulfate (m.w. 7000)]
absorbability (human subjects): poor absorbablity
anticoagulant effect (human subjects): little anticoagulant effect
other safety concerns (human subjects): no other apparent safety concerns

heparin [heparin, MW 6000]
viscoelasticity (average log G* over 1-100 rad/s) compared to saline control [1]: similar

heparin sodium [reference compound]
PD, % of control (healthy mongrel dogs [2]; 6.5 mg/ml aerosol, significant decrease, Ringer control): 55.1 % of control
TMV, % of control (healthy mongrel dogs [3]; 6.5 mg/ml aerosol, nonsignificant upward trend): approximately 130 % of control
mucus viscoelasticity (G*), % of control (healthy mongrel dogs [4]; 6.5 mg/ml aerosol, significantly decreased): 36 % of control
